The subject of one data set is Male Wistar rats. Put plainly: Sucrose preference test (chronic mild stress model, CMS). Format: in vivo, rat. The note with it: for effect on sucrose intakes in control animals, compared to vehicle: control rats; for effect on sucrose intakes in control animals, compared to vehicle / effect on sucrose consumption in stressed animals, compared to vehicle: daily IP for five weeks, imipramine 10 mg/kg, vortioxetine 10 mg/kg, nalmefene 1 mg/kg, 1% sucrose solution; for effect on sucrose consumption in stressed animals, compared to vehicle: rats exposed to chronic mild stress; for weeks of treatment after which increase in sucrose intakes reached statistical significance versus Week 0 / overall effect in the CMS model (conclusion): stressed animals; for weeks of treatment after which increase in sucrose intakes reached statistical significance versus Week 0: daily IP; for overall effect in the CMS model (conclusion): five weeks of treatment. The text has this:
Rodents inherently have an interest in sweet foods or liquids. Exposure to stressfull conditions reduces the interest for sweet foods or solutions, indicating a reduced sensitivity to rewards. This can be assessed for example in a sucrose preference test, where the stress-induced reduction of intake of a sucrose solution is used as a measure of anhedonia (reduces sensitivity to rewards). This stress-induced reduction of sucrose intake in the rat is a well-established animal model of anhedonia (Nielsen, Arnt and Sánchez. Intracranial self-stimulation and sucrose intake differ as hedonic measures following chronic mild stress: interstrain and interindividual differences. Behav. Brain. Res. (2000), 107 (1-2): 21-33).
Male Wistar rats (Charles River, Germany) were brought into the laboratory one month before the start of the experiment. Except as described below, the animals were singly housed with food and water freely available, and were maintained on a 12-h light/dark cycle (lights on at 08.00) and in a constant temperature (22±2° C.) and humidity (50±5%) conditions. All procedures used in this study are conformed to the rules and principles of the 86/609/EEC Directive, and were approved by the Local Bioethical Committee at the Institute of Pharmacology, Polish Academy of Sciences, Krakow, Poland.
After a period of 3 weeks of adaptation to laboratory and housing conditions, the animals were trained to consume a 1% sucrose solution; training consisted of nine 1 h baseline tests in which sucrose was presented, in the home cage, following 14 h food and water deprivation. The sucrose intake was measured by weighing pre-weighed bottles containing the sucrose solution, at the end of the test. Subsequently, sucrose consumption was monitored, under similar conditions, at weekly intervals throughout the whole experiment.
On the basis of their sucrose intakes in the final baseline test, the animals were divided into two matched groups. One group of animals was subjected to the chronic mild stress procedure for a period of 8 consecutive weeks. Each week of stress regime consisted of: two periods of food or water deprivation, two periods of 45 degree cage tilt, two periods of intermittent illumination (lights on and off every 2 h), two periods of soiled cage (250 ml water in sawdust bedding), one period of paired housing, two periods of low intensity stroboscopic illumination (150 flashes/min), and three periods of no stress. All stressors were 10-14 h of duration and were applied individually and continuously, day and night. […] They were deprived of food and water for 14 h preceding each sucrose test, but otherwise food and water were freely available in the home cage.
(§1) On the basis of their sucrose intakes following 2 weeks of initial stress, both stressed and control groups were each divided further into matched subgroups (n=8), and for subsequent five weeks they received daily IP administration of vehicle (0.9% saline, 1 ml/kg), Vortioxetine (10 mg/kg), Nalmefene (1 mg/kg), joint injections of Vortioxetine (10 mg/kg) and Nalmefene (1 mg/kg) or imipramine HCl (10 mg/kg) as the reference treatment. The volume of all injections was 1 ml/kg. The drugs were administered at approx. 10.00 and the weekly sucrose tests were carried out 24 h following the last drug injections. After five weeks all treatments were terminated and one additional sucrose test was carried out following one week of withdrawal. Stress was continued throughout the entire period of treatment and withdrawal.
The Fisher's LSD test was used for post-hoc comparisons of means.

The target in the next data set is μ-opioid receptors (Homo sapiens, UniProt P35372). The note with it: in vitro studies; cited from earlier work.
Chain of μ-opioid receptors (P35372 whole entry): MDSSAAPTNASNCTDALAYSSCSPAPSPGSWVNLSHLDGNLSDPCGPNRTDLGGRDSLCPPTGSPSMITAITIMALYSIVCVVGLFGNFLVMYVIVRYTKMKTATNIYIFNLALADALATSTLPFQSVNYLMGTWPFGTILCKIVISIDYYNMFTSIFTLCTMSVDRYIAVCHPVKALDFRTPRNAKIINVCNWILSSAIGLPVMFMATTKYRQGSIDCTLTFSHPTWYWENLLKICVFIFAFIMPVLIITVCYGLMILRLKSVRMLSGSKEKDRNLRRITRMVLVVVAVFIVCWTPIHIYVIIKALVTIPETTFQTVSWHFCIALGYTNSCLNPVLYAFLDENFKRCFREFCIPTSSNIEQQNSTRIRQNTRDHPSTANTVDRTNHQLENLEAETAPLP
The target of the next data set is δ-opioid receptors (Homo sapiens, UniProt P41143). The note with it: in vitro studies; cited from earlier work.
Chain of δ-opioid receptors (P41143 whole entry): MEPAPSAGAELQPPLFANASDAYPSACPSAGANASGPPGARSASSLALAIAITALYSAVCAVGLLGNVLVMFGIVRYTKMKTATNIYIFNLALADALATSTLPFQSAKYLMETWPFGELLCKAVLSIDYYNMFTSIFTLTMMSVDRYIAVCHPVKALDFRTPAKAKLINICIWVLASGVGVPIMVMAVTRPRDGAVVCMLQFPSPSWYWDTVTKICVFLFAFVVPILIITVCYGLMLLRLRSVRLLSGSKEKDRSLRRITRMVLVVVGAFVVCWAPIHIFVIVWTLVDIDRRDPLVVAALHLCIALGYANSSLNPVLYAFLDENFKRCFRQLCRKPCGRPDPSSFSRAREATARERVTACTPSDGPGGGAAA
Data set [1] can be described thus: Body weights in the CMS study. As to the method:
as §1

The target in the next data set is κ-opioid receptors (Homo sapiens, UniProt P41145). The settings on record: in vitro studies; cited from earlier work.
Chain of κ-opioid receptors (P41145 whole entry): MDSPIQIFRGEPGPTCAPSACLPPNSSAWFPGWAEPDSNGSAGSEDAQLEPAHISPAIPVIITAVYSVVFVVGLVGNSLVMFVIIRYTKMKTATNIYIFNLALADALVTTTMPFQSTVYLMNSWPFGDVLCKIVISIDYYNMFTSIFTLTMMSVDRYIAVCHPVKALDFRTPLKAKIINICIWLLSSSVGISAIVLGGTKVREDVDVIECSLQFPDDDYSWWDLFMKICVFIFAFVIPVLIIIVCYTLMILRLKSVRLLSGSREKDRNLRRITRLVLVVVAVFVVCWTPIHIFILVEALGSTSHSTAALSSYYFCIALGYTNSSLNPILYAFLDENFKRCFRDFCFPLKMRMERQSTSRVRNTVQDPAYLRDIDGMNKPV

Where a name gives a salt, the structure may show the parent alone.

Take `C=C1CC[C@@]2(O)[C@H]3Cc4ccc(O)c5c4[C@@]2(CCN3CC2CC2)[C@H]1O5` [Nalmefene, 17-(cyclopropylmethyl)-4,5-alpha-epoxy-6-methylenemorphinan-3,14-diol]: in the data set on Male Wistar rats, the “effect on sucrose intakes in control animals, compared to vehicle” value is given as “no effect”; the “effect on sucrose consumption in stressed animals, compared to vehicle” value is recorded as “gradually increased”; the “weeks of treatment after which increase in sucrose intakes reached statistical significance versus Week 0” value is given as “four”; the “overall effect in the CMS model (conclusion)” value (“overall effect” for short) is reported as “effective”. The “functional activity at the μ receptor” value at μ-opioid receptors was “antagonist activity”. The “functional activity at the δ receptor” value on δ-opioid receptors is on record as “antagonist activity”. Also, the “effect on body weight compared to vehicle-treated group” value in data set [1] (control and stressed animals, decreases p<0.05 in controls, NS in stressed) is reported as “did not affect”. Besides, the “Body weights after five weeks of treatment (means ± SEM), Controls” value (shortened to “Body weights … (means ± SEM), Controls”) in data set [1] (control rats, daily IP) was 371 ± 9 g. In data set [1] (stressed rats, daily IP), the “Body weights after five weeks of treatment (means ± SEM), Stressed” value (“Body weights … (means ± SEM), Stressed” below) stood at 355 ± 11 g. Also, the “functional activity at the κ receptor” value on κ-opioid receptors is given as “partial agonist activity”.
Regarding `CN(C)CCCN1c2ccccc2CCc2ccccc21` [Imipramine, imipramine HCl], in the data set on Male Wistar rats, the “effect on sucrose intakes in control animals, compared to vehicle” value is reported as “no significant effect”; the “effect on sucrose consumption in stressed animals, compared to vehicle” value is “gradually increased”; the “weeks of treatment after which increase in sucrose intakes reached statistical significance versus Week 0” value is given as “three”; the “overall effect” value is recorded as “fully reversed”. The “Body weights … (means ± SEM), Controls” value in data set [1] (control rats, daily IP) was determined as 350 ± 7 g. In addition, the “effect on body weight compared to vehicle-treated group” value in data set [1] (rat, in vivo) is given as “decreased”. Moreover, the “Body weights … (means ± SEM), Stressed” value in data set [1] (stressed rats, daily IP) came to 326 ± 7 g.
In the case of `Cc1ccc(Sc2ccccc2N2CCNCC2)c(C)c1` [Vortioxetine, 1-[2-(2,4-dimethyl-phenylsulfanyl)-phenyl]-piperazine], in the data set on Male Wistar rats, the “effect on sucrose intakes in control animals, compared to vehicle” value was “no significant effect”; the “effect on sucrose consumption in stressed animals, compared to vehicle” value is recorded as “no significant effect”; the “overall effect” value is on record as “not effective”. Further, the “effect on body weight compared to vehicle-treated group” value in data set [1] (rat, in vivo) is given as “decreased”. In data set [1] (rat, in vivo, ip), the “Body weights … (means ± SEM), Controls” value was found to be 348 ± 9 g and the “Body weights … (means ± SEM), Stressed” value is 328 ± 9 g.

(Values after patent US10376506B2, “Use of an opioid receptor antagonist with kappa-activity and vortioxetine for treatment of depressive disorder with melancholic features” (H. Lundbeck A/S, priority 2013, dated 2019).)
